Entries after “also recorded” stand apart in the source; their conditions may differ.
Assays:
Format in all cases: cell-based
[1] = tested on: murine CD4+ T cells; assay: In vitro CD4+ T cell activation assay (anti-CD3/anti-CD28)
Method: Primary CD4+ T cells were freshly isolated by negative selection from spleens of C57/B16 mice (N=3 per experiment). Briefly, spleens were smashed in a culture dish and passed twice through a strainer (70 μm and 40 μm, respectively) to obtain a single-cell suspension.
Using the negative selection (CD4+ T Cell Isolation kit, Miltenyi Biotec, #130-10-454). Non-CD4 T cells were depleted by retaining them in LS magnetizing column (Miltenyi Biotec).
Isolated CD4 T cells were cultured in 96-well plates (1×10^5 per well) in RPMI1640 medium supplemented with 10% fetal bovine serum, 100 U/ml penicillin, 100 μg/ml streptomycin, 2 mM L-glutamine. Treatment with the metabolites 6-BT (1/10 μM), LysoPC(20:0) (10/50 μM) or MA-GPC (10/50/100 μM) and activation with 2.5 μg/ml soluble anti-CD3 (145-2C11, eBioscience) and 1 μg/ml soluble anti-CD28 (37.51, eBioscience) antibodies started immediately after seeding in 200 i/well complete RPMI1640 media for a 24-hour period, at the end of which supernatant was harvested and stored at −80° C.
(§1) Specific ELISAs (R&D Systems) were utilized to measure the concentration of TNFα, IFNβ, and IFNγ in cell supernatant of murine monocytes, macrophages ad T cells, respectively, according to the manufacturer's instructions. The concentration of insulin after 24-hour treatment with metabolites or after GSIS were determined using Rat insulin ELISA (Mercodia) according to the manufacturer's instructions. GSIS was calculated by subtracting the concentration of insulin at 1 mM glucose to the insulin rate at 22 mM glucose.
Particularly in the context of autoimmune diabetes, the activity of T cells is driving disease onset and progression. […] To mimic antigen presentation, murine CD4 T cells (isolated from spleens; Uchimura T., The Innate Immune Sensor NLRC3 Acts as a Rheostat that Fine-Tunes T Cell Responses in Infection and Autoimmunity. Immunity 2019) were activated by monoclonal antibodies against CD3 and CD28 (2.5 and 1 μg/ml, respectively).

[2] = tested on: NF-kB pathway; assay: Phosphorylated p65 subunit after PMA/ionomycin activation, murine CD4 T cells; conditions: PMA 50 μg/ml and ionomycin 1 μg/ml, 5-10 minutes after activation (FIG. 18)
Method: Seeking for the molecular mechanism(s) underlying 6-BT actions, 6-BT impact on the activation of the NF-kB pathway, a central pathway in all inflammatory diseases (beyond autoimmunity) was checked first. […] Upon T cell activation with PMA ([…]) and ionomycin (1 μg/ml), 6-BT could inhibit, at very early time-points (5-10 minutes after activation), the NF-kB signaling. This effect was found in both murine and human (Jurkat cells) CD4 T cells.

[3] = tested on: murine bone marrow-isolated monocytes or bone marrow-derived macrophages; assay: In vitro stimulation of murine monocytes / bone marrow-derived macrophages, cytokine ELISA
Method: Naïve bone marrow monocytes were isolated from BM cells. Briefly, hind legs were removed from 3 mice, cleaned from surrounding muscles. The femur and tibia bones were trimmed at their extremities, the BM content was flushed out with cold PBS using a 10 ml syringe and a 25G needle and filtered through a 40 μm strainer. Red blood cells (RBC) were lysed with 1× RBC lysis buffer (Biolegend) for 5 min. on ice. CD11b+ monocytes were further purified by positive selection using a cocktail of CD11 b magnetic beads (Miltenyi Biotec, #130-049-601) and magnetizing MS columns (Miltenyi Biote) according to the manufacturer's instructions. Subsequently, monocytes were seeded in F-bottom 96-well plates at 1×10^5 cells per well in RPMI1640 supplemented with 10% heat-inactivated fetal bovine serum, penicillin (100 U/ml), streptomycin (100 μg/ml), L-glutamine (2 mM) […]. Monocytes were activated with 10 μg/ml LPS (Sigma-Aldrich) and subjected to treatment with 6-BT (10/100 μM), LysoPC(20:0) (10/50 μM), MA-GPC (10/50/100 μM), or appropriate vehicle. Cells were kept in a final volume of 200 μl/well for 24 hours, after which supernatant was harvested and stored at −80° C.
Bone marrow-derived macrophages (BMDM) and DC (BMDC) were obtained by differentiating freshly isolated BM cells from femur and tibia bones (as above described) of C57/B16 mice (N=3 per experiment). For BMDM, BM cells were seeded at 3×10^6 cells per 10 cm dish and cultured for 7 days in 12 ml RPMI1640 medium with 20% fetal bovine serum, 30% L-929 cell conditioned media, as source of murine macrophage colony-stimulating factor (M-CSF). For BMDC, BM cells were seeded at 0.5×10^6/ml cells in 25 ml in 10 cm dishes and cultured for 7 days in presence of GM-CSF in 5% FBS-RPMI1640 medium. After differentiation, BMDM/DCs were harvested, counted and seeded at a density of 1×10^5 cells per well in a F-bottom 96-well plate and left to adhere for 20 hours before experiments were performed. Macrophages were activated with 10 μg/ml polyinosinic-polycytidylic acid poly(I.C) (InvivoGen) for 24 hours in presence or not of 6-BT (10/100 μM), LysoPC(20:0) (10/50 μM), or MA-GPC (10/50/100 μM) in a final volume of 200 μl/well. At the end of the assay, supernatant was harvested and stored at −80° C.
as §1
Here, murine bone marrow-isolated monocytes (Christ A., Western Diet Triggers NLRP3-Dependent Innate Immune Reprogramming. Cell 2018) or bone marrow-derived macrophages (Swanson K V, A noncanonical function of cGAMP in inflammasome priming and activation. JEM 2017) were exposed for 24 hours to the indicated concentrations of 6-BT (10-100 μM) in presence or not of 10 μg/ml LPS, 10 μg/ml P3C or 10 μg/ml poly(I.C).

For N[C@@H](Cc1c[nH]c2cc(Br)ccc12)C(=O)O [6-BT, 6-bromotryptophan], the “production of the Th1 cytokine IFNgamma” value ([1]; CD4 T cells from spleens, anti-CD3 2.5 μg/ml and anti-CD28 1 μg/ml (FIGS. 16, 20)) was “significantly reduced; also recorded: exerted inhibitory effect”, the “Th1 responses in CD4 T cells” value ([1]; anti-CD3 & anti-CD28 mAbs, 24 hours (FIG. 11)) was “dampen Th1 responses” and the “NF-kB signaling (phosphorylated p65 subunit)” value [2] was “could inhibit”. For the same compound, the “secretion of TNFα upon TLR4 engagement” value ([3]; 10-100 μM, 24 hours, 10 μg/ml LPS, ELISA (FIG. 14)) was “can inhibit the secretion”, the “secretion of TNFα upon TLR2 engagement” value ([3]; 10-100 μM, 24 hours, 10 μg/ml P3C, ELISA (FIG. 14)) was “can inhibit the secretion” and the “secretion of IFNbeta upon TLR3 activation” value ([3]; 10-100 μM, 24 hours, 10 μg/ml poly(I.C), ELISA (FIG. 14)) was “can inhibit the secretion”. For the same compound, the “type 1 IFN secretion” value ([3]; PolyI:C for 24 hours, TLR3 stimulation (FIG. 9)) was “impair type 1 IFN secretion”, the “anti-inflammatory effects on monocytes” value ([3]; monocytes isolated from murine bone marrow, 6-BT vs tryptophan) was “anti-inflammatory effects are specific for the 6-bromotryptophan molecule” and the “cytokine secretion by monocytes” value ([3]; murine monocytes CD11b+ activated with LPS (10 μg/ml) for 24 hours, TLR4 stimulation (FIG. 8)) was “halt cytokine secretion”.

Source: patent US12648928B2, “Intervention strategy for prevention or treatment of diabetes mellitus, autoimmune disease, inflammatory disease or cardiovascular disease” (ACADEMISCH MEDISCH CENTRUM, priority 2020, dated 2026)
